# In PubChem BioAssay (NCI):
#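 A five-concentration, 48-hour dose response in 96-well plates underlies each endpoint, interpolated linearly between surrounding concentrations. At the GI50, growth is halved. TGI marks complete inhibition of growth.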
# Columns and labels:
# Experiment in all cases: DTP human tumour cell line panel, 48 h
# CCRF-CEM leukemia = test system: CCRF-CEM leukemia
# BT-549 breast = test system: BT-549 breast
# OVCAR-5 ovarian = test system: OVCAR-5 ovarian
# UACC-62 melanoma = test system: UACC-62 melanoma
# NCI-H522 lung = test system: NCI-H522 lung
# SK-MEL-5 melanoma = test system: SK-MEL-5 melanoma
# SF-539 CNS = test system: SF-539 CNS
# HCT-116 colon = test system: HCT-116 colon
# SK-MEL-2 melanoma = test system: SK-MEL-2 melanoma
# SR leukemia = test system: SR leukemia
# RXF 393 renal = test system: RXF 393 renal
# 786-0 renal = test system: 786-0 renal
# HCT-15 colon = test system: HCT-15 colon
# SW-620 colon = test system: SW-620 colon
# U251 CNS = test system: U251 CNS
# MCF7 breast = test system: MCF7 breast
# PC-3 prostate = test system: PC-3 prostate
# MDA-MB-435 = test system: MDA-MB-435
# NCI-H23 lung = test system: NCI-H23 lung
# ACHN renal = test system: ACHN renal
# HS 578T breast = test system: HS 578T breast
# SF-268 CNS = test system: SF-268 CNS
# SK-OV-3 ovarian = test system: SK-OV-3 ovarian
# SNB-75 CNS = test system: SNB-75 CNS
# SF-295 CNS = test system: SF-295 CNS
# NCI-H226 lung = test system: NCI-H226 lung
# UO-31 renal = test system: UO-31 renal
# HT29 colon = test system: HT29 colon
# SN12C renal = test system: SN12C renal
# NCI/ADR-RES ovarian = test system: NCI/ADR-RES ovarian
# COLO 205 colon = test system: COLO 205 colon
# MOLT-4 leukemia = test system: MOLT-4 leukemia
# OVCAR-8 ovarian = test system: OVCAR-8 ovarian
# K-562 leukemia = test system: K-562 leukemia
# NCI-H460 lung = test system: NCI-H460 lung
# RPMI-8226 leukemia = test system: RPMI-8226 leukemia
# HOP-62 NSCLC = test system: HOP-62 NSCLC
# A549 NSCLC = test system: A549 NSCLC
# MDA-MB-231 breast = test system: MDA-MB-231 breast
# KM12 colon = test system: KM12 colon
# A498 renal = test system: A498 renal
# HL-60(TB) leukemia = test system: HL-60(TB) leukemia
# CAKI-1 renal = test system: CAKI-1 renal
# HCC-2998 colon = test system: HCC-2998 colon
# EKVX NSCLC = test system: EKVX NSCLC
# IGROV1 ovarian = test system: IGROV1 ovarian
# T-47D breast = test system: T-47D breast
# DU-145 prostate = test system: DU-145 prostate
# M14 melanoma = test system: M14 melanoma
# TK-10 renal = test system: TK-10 renal
# SNB-19 CNS = test system: SNB-19 CNS
# UACC-257 melanoma = test system: UACC-257 melanoma
structure (smiles),measurement,setting,value
N#Cc1c(NC(=O)c2ccccc2C(F)(F)F)sc2c1CCC(=O)C2,GI50,CCRF-CEM leukemia,325 nM
same,TGI,CCRF-CEM leukemia,14900 nM
same,GI50,BT-549 breast,1090 nM
same,TGI,BT-549 breast,8620 nM
same,GI50,OVCAR-5 ovarian,1480 nM
same,TGI,OVCAR-5 ovarian,3810 nM
same,GI50,UACC-62 melanoma,1180 nM
same,TGI,UACC-62 melanoma,2960 nM
same,GI50,NCI-H522 lung,360 nM
same,TGI,NCI-H522 lung,2580 nM
same,GI50,SK-MEL-5 melanoma,1650 nM
same,TGI,SK-MEL-5 melanoma,3470 nM
same,GI50,SF-539 CNS,480 nM
same,TGI,SF-539 CNS,1910 nM
same,GI50,HCT-116 colon,363 nM
same,TGI,HCT-116 colon,4890 nM
same,GI50,SK-MEL-2 melanoma,2650 nM
same,TGI,SK-MEL-2 melanoma,7020 nM
same,GI50,SR leukemia,359 nM
same,TGI,SR leukemia,5820 nM
same,GI50,RXF 393 renal,1050 nM
same,TGI,RXF 393 renal,2800 nM
same,GI50,786-0 renal,3250 nM
same,TGI,786-0 renal,> 100000 nM
same,GI50,HCT-15 colon,405 nM
same,TGI,HCT-15 colon,1850 nM
same,GI50,SW-620 colon,427 nM
same,TGI,SW-620 colon,2520 nM
same,GI50,U251 CNS,1240 nM
same,TGI,U251 CNS,> 100000 nM
same,GI50,MCF7 breast,1390 nM
same,TGI,MCF7 breast,10300 nM
same,GI50,PC-3 prostate,384 nM
same,TGI,PC-3 prostate,15600 nM
same,GI50,MDA-MB-435,1970 nM
same,TGI,MDA-MB-435,5860 nM
same,GI50,NCI-H23 lung,1040 nM
same,TGI,NCI-H23 lung,9280 nM
same,GI50,ACHN renal,433 nM
same,TGI,ACHN renal,1480 nM
same,GI50,HS 578T breast,1950 nM
same,TGI,HS 578T breast,8360 nM
same,GI50,SF-268 CNS,3310 nM
same,TGI,SF-268 CNS,34000 nM
same,GI50,SK-OV-3 ovarian,4870 nM
same,TGI,SK-OV-3 ovarian,50400 nM
same,GI50,SNB-75 CNS,1630 nM
same,TGI,SNB-75 CNS,6100 nM
same,GI50,SF-295 CNS,2580 nM
same,TGI,SF-295 CNS,7050 nM
same,GI50,NCI-H226 lung,2090 nM
same,TGI,NCI-H226 lung,5940 nM
same,GI50,UO-31 renal,490 nM
same,TGI,UO-31 renal,1820 nM
same,GI50,HT29 colon,771 nM
same,TGI,HT29 colon,9170 nM
same,GI50,SN12C renal,2500 nM
same,TGI,SN12C renal,15900 nM
same,GI50,NCI/ADR-RES ovarian,1310 nM
same,TGI,NCI/ADR-RES ovarian,5180 nM
same,GI50,COLO 205 colon,1870 nM
same,TGI,COLO 205 colon,3740 nM
same,GI50,MOLT-4 leukemia,1610 nM
same,TGI,MOLT-4 leukemia,16700 nM
same,GI50,OVCAR-8 ovarian,1680 nM
same,TGI,OVCAR-8 ovarian,> 100000 nM
same,GI50,K-562 leukemia,378 nM
same,TGI,K-562 leukemia,11300 nM
same,GI50,NCI-H460 lung,3350 nM
same,TGI,NCI-H460 lung,19000 nM
same,GI50,RPMI-8226 leukemia,272 nM
same,TGI,RPMI-8226 leukemia,954 nM
same,GI50,HOP-62 NSCLC,3120 nM
same,TGI,HOP-62 NSCLC,> 100000 nM
same,GI50,A549 NSCLC,3670 nM
same,TGI,A549 NSCLC,29200 nM
same,GI50,MDA-MB-231 breast,2080 nM
same,TGI,MDA-MB-231 breast,5430 nM
same,GI50,KM12 colon,3440 nM
same,TGI,KM12 colon,13900 nM
same,GI50,A498 renal,10500 nM
same,TGI,A498 renal,25000 nM
same,GI50,HL-60(TB) leukemia,405 nM
same,TGI,HL-60(TB) leukemia,4020 nM
same,GI50,CAKI-1 renal,785 nM
same,TGI,CAKI-1 renal,2560 nM
same,GI50,HCC-2998 colon,2910 nM
same,TGI,HCC-2998 colon,11500 nM
same,GI50,EKVX NSCLC,2680 nM
same,TGI,EKVX NSCLC,11400 nM
same,GI50,IGROV1 ovarian,2370 nM
same,TGI,IGROV1 ovarian,13100 nM
same,GI50,T-47D breast,374 nM
same,TGI,T-47D breast,3240 nM
same,GI50,DU-145 prostate,4670 nM
same,TGI,DU-145 prostate,> 100000 nM
same,GI50,M14 melanoma,2090 nM
same,TGI,M14 melanoma,9330 nM
same,GI50,TK-10 renal,1640 nM
same,TGI,TK-10 renal,9830 nM
same,GI50,SNB-19 CNS,3370 nM
same,TGI,SNB-19 CNS,> 100000 nM
same,GI50,UACC-257 melanoma,2210 nM
same,TGI,UACC-257 melanoma,6480 nM
